Measurements published in patent publication EP0609518A1, “Optically active aminopyridine derivative and use thereof” (THE GREEN CROSS CORPORATION, priority 1992, dated 1994).

Experiments:
[1] = system: male spontaneously hypertensive rat; experiment: Antihypertensive action (systolic pressure by tail-cuff method); assay type: in vivo; settings: 3 mg/kg p.o., dissolved in brine, at 1 hour from the oral administration
Description: The compound (hydrochloride) of the present invention obtained in Example 1 was dissolved in brine, and forcibly administered (p.o.) to male spontaneously hypertensive rat at 3 mg/kg. The systolic pressure was measured with a programmable sphygmonanometer (PS-200A, manufactured by Riken Kaihatsu, Japan) by tail-cuff method [Ohkubo H et al. Proc. Natl. Acad. Sci. USA, 87, 5153-5157 (1990)].

[2] = system: rat; experiment: Toxicity by single administration to rat; assay type: in vivo; settings: single administration of 450 mg/kg to rat
From the text: Toxicity by single administration to rat

Structure (SMILES): Cl.N#CN=C(Nc1ccc(N)nc1)N[C@@H]1C[C@@H]2CC[C@H]1C2 [hydrochloride of (+)-N-(6-amino-3-pyridyl)-N''-cyano-N'-[(1S] [hydrochloride of (+)-N-(6-amino-3-pyridyl)-N''-cyano-N'-[(1S,2R,4R)-2-norbornyl]guanidine]
- vasodepressor action [1]: 33%
- death case [2]: did not result in a death case
